# Test results from patent EP0269311A2, “Methods of treating bone diseases by administration of a cysteine proteinase inhibitor” (Merck & Co., Inc., priority 1986, dated 1988).
# Tests used:
# serum Ca⁺⁺ [1] = assay: Rat model of secondary hyperparathyroidism (Ca++ deficient diet), serum Ca++; assay type: in vivo, Rats; conditions: intubated
# From the text: In this model rats are fed a Ca⁺⁺ deficient diet, causing an enhanced release of parathyroid hormone (PTH) and secondary hyperparathyroidism. At this stage most of the serum Ca⁺⁺ is mobilized from bone. To maintain serum calcium levels within the normal range, bone resorption is stimulated by the released parathyroid hormone. This model was used to study the effect of Formula I compound on rats with secondary hyperparathyroidism. Rats (150-200 gr) were kept on a Ca⁺⁺ deficient diet for 7 days. Different doses of Formula I compound were intubated into animals (n=10) and serum Ca⁺⁺ was monitored at 0, 4, 8, 12 and 24 hours.
# serine proteinases = conditions: cited from earlier work
# metalloproteinases = conditions: cited from earlier work
# cathepsin B = cathepsin B (Homo sapiens, UniProt P07858); conditions: cited from earlier work
# serum Ca⁺⁺ [2] = assay: Rat model of humoral hypercalcemia of malignancy (transplanted Rice 500 Leydig cell tumor), serum Ca++; assay type: in vivo, male Fisher rats; conditions: for Serum mg % Ca++: 40 mg/kg/day intubated once a day from two days after tumor transplantation
# From the text: A rat model that closely mimics the human syndrome of Humoral Hypercalcemia of Malignancy was described by Insogna et al, Endocrinology 114, 888-896 (1984). In this model a Rice 500 Leydig cell tumor is transplated in male Fisher rats. […] These findings exactly parallel those in human humoral hypercalcemia of malignancy. The same model was used to study the effect of the formula I compound on lowering serum Ca⁺⁺ levels in rodents with established malignant hypercalcemia. Rats (150-200 gr) were intubated once a day with three different doses of the formula I compound including 10 mg, 25 mg and 80 mg/kg/day as shown in Figure 1. Control animals received no compound. The compound was given on days 10-15 after tumor transplantation when all animals were hypercalcemic. In experiment No. 2 (Table 1), rodents were intubated once a day with 40 mg/kg, of the formula I compound two days after tumor transplantation. These studies were utilized to examine whether the formula I compound could prevent tumor-induced hypercalcemia in these animals which generally appears 8-10 days after transplantation.
# papain = molecular target: T1, papain (Carica papaya, UniProt P00784); conditions: with the disappearance of the thiol group of papain; cited from earlier work
# T1 sequence (P00784 134-345): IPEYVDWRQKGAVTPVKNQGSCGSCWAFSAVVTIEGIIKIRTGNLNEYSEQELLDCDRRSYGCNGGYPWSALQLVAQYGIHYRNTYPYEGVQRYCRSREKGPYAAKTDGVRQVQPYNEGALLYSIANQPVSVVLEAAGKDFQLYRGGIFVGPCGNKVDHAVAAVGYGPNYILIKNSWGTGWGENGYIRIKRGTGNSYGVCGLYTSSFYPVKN
# cathepsin H = molecular target: T2, cathepsin H (Homo sapiens, UniProt P09668); conditions: cited from earlier work
# T2 sequence (P09668 98-335): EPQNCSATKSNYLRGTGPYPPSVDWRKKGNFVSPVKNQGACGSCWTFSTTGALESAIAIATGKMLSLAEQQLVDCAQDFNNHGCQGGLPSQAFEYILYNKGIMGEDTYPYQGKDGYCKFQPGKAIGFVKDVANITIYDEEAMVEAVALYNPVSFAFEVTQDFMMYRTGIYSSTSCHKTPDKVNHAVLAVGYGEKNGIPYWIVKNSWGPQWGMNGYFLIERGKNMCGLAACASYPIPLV
structure (smiles),measurement,setting,value
"CC(C)C[C@H](NC(=O)[C@H]1O[C@@H]1C(=O)O)C(=O)NCCCCN=C(N)N [Formula I compound, epoxysuccinyl-leucylamido (4-guanidino)butane]",Serum mg % Ca++,"serum Ca⁺⁺ [1]; 10 mg, 0 hours",11.5 ± 0.5 mg %
same,Serum mg % Ca++,"serum Ca⁺⁺ [1]; 10 mg, 4 hours",10.6 ± 0.4 mg %
same,Serum mg % Ca++,"serum Ca⁺⁺ [1]; 10 mg, 8 hours",10.4 ± 0.5 mg %
same,Serum mg % Ca++,"serum Ca⁺⁺ [1]; 10 mg, 12 hours",10.2 ± 0.4 mg %
same,Serum mg % Ca++,"serum Ca⁺⁺ [1]; 10 mg, 24 hours",11.5 ± 0.6 mg %
same,Serum mg % Ca++,"serum Ca⁺⁺ [1]; 20 mg, 0 hours",11.3 ± 0.4 mg %
same,Serum mg % Ca++,"serum Ca⁺⁺ [1]; 20 mg, 4 hours",10.2 ± 0.3 mg %
same,Serum mg % Ca++,"serum Ca⁺⁺ [1]; 20 mg, 8 hours",9.7 ± 0.4 mg %
same,Serum mg % Ca++,"serum Ca⁺⁺ [1]; 20 mg, 12 hours",9.5 ± 0.3 mg %
same,Serum mg % Ca++,"serum Ca⁺⁺ [1]; 20 mg, 24 hours",12.0 ± 0.3 mg %
same,Serum mg % Ca++,"serum Ca⁺⁺ [1]; 60 mg, 0 hours",11.7 ± 0.6 mg %
same,Serum mg % Ca++,"serum Ca⁺⁺ [1]; 60 mg, 4 hours",9.8 ± 0.4 mg %
same,Serum mg % Ca++,"serum Ca⁺⁺ [1]; 60 mg, 8 hours",9.5 ± 0.3 mg %
same,Serum mg % Ca++,"serum Ca⁺⁺ [1]; 60 mg, 12 hours",8.9 ± 0.4 mg %
same,Serum mg % Ca++,"serum Ca⁺⁺ [1]; 60 mg, 24 hours",12.7 ± 0.4 mg %
same,drop of serum Ca⁺⁺,"serum Ca⁺⁺ [1]; most effective dose 40 mg/kg, in 12 hours",28.8%
same,effect on serine proteinases,serine proteinases,unaffected
same,effect on metalloproteinases,metalloproteinases,unaffected
same,inhibition of cathepsin B,cathepsin B,inhibit
same,Serum mg % Ca++,serum Ca⁺⁺ [2]; day 2,10.5 ± 0.3 mg %
same,Serum mg % Ca++,serum Ca⁺⁺ [2]; day 4,10.1 ± 0.4 mg %
same,Serum mg % Ca++,serum Ca⁺⁺ [2]; day 6,10.2 ± 0.2 mg %
same,Serum mg % Ca++,serum Ca⁺⁺ [2]; day 8,10.3 ± 0.3 mg %
same,Serum mg % Ca++,serum Ca⁺⁺ [2]; day 10,9.8 ± 0.4 mg %
same,Serum mg % Ca++,serum Ca⁺⁺ [2]; day 11,10.3 ± 0.4 mg %
same,Serum mg % Ca++,serum Ca⁺⁺ [2]; day 12,10.1 ± 0.3 mg %
same,Serum mg % Ca++,serum Ca⁺⁺ [2]; day 13,10.4 ± 0.4 mg %
same,Serum mg % Ca++,serum Ca⁺⁺ [2]; day 14,10.5 ± 0.3 mg %
same,Serum mg % Ca++,serum Ca⁺⁺ [2]; day 15,10.6 ± 0.4 mg %
same,tumor induced hypercalcemia (established),"serum Ca⁺⁺ [2]; given orally, 10 mg, 25 mg and 80 mg/kg/day on days 10-15 after tumor transplantation (Figure 1)",block
same,tumor induced hypercalcemia (prevention),"serum Ca⁺⁺ [2]; given orally, 40 mg/kg once a day from two days after tumor transplantation (Table I)",can prevent
same,inhibition of papain,papain,inhibit
same,inhibition of cathepsin H,cathepsin H,inhibit
